# Values quoted from earlier work, collected in patent US20060014804A1, “Cyanoguanidine prodrugs” (Leo Pharma A/S, priority 2002, published 2006).
# Legend:
# human tumour cells [1] = details: nude mice transplanted with human tumour cells, also paclitaxel-resistant tumour cells
# human tumour cells [2] = details: compared with daunorubicin and paclitaxel
# [3] = tested on: human lung cancer tumour xenograft; details: nude mice
# [4] = tested on: normal human endothelial cells
# [5] = tested on: human lung and breast cancer cell lines
structure (smiles),measurement,setting,value
N#CNC(=Nc1ccncc1)NCCCCCCOc1ccc(Cl)cc1 [N-(6-(4-chlorophenoxy)hexyl)-N′-cyano-N″-(4-pyridyl)guanidine],antitumour activity in vivo,human tumour cells [1],substantial antitumour activity
same,potency in vitro,human tumour cells [2],comparable to that of the reference cytostatic agents daunorubicin and paclitaxel
same,antitumour activity in the nude mouse model,[3],potent antitumour activity
same,antiproliferative activity on normal human endothelial cells,[4],considerably less antiproliferative activity
same,antiproliferative activity in vitro,[5],high antiproliferative activity in vitro
